Results from patent US6130250A, “Veterinary use of a pleuromutilin derivative” (priority 1996, dated 2000).
In brackets after ≈: the same amount, converted by molar mass. Read-outs that look alike come from different tables or passages of the source.

Tests used:
coccidia = details: fowl; cited from earlier work
[1] = hen; cited from earlier work
[2] = pig; cited from earlier work
M. hyopneumoniae = experiment: MIC, microtitre broth, ten field isolates and type strain J of M. hyopneumoniae; assay type: cell-based, Mycoplasma hyopneumoniae
Excerpt: Tissue samples are obtained from the lungs of pigs from various enzootic pneumonia of pigs (EPP)-affected herds. Samples are shipped on dry ice for culture. M. hyopneumoniae is recovered from freshly sectioned lung tissue by direct culture onto Mycoplasma Experience agar. This technique allows the distinctive colonies of M. hyopneumoniae to be recognised and readily separated, by cloning from other faster growing mycoplasma species such as Mycoplasma hyorhinis, often present in EPP lung samples. Isolates are subcultured and identified by disc growth inhibition using specific rabbit antiserum raised to M. hyopneumoniae NCTC 10110.
Cultures for antibiotic challenge are prepared in Mycoplasma Experience broth, incubated aerobically at 36° C.
A commercially available solid medium (Mycoplasma Experience Ltd.) is used to isolate M. hyopneumoniae from lung tissue. A liquid medium (Mycoplasma Experience Ltd.) containing phenol red and glucose (pH 7.6) is used for the MIC assays.
(§1) Stock solutions of test compound are prepared at 1 mg/ml concentration in deionised water, sterilised by filtration through 0.2μ pore size membrane filters (Sartorius Minisart, N) and stored at -20° C. For use in the MIC tests the stock solutions are diluted in liquid medium to double the final concentrations required. MIC tests are carried out according to the method of Tanner & Wu, Avian Diseases 36 (1992) 714-717. Actively growing challenge cultures are prepared either from 1 ml aliquots of broth cultures stored at -70° C. or from cultures stored on agar at -70° C. The challenge cultures are diluted to give a target titre of 10^3 to 10^5 colour changing units/ml. 0.1 ml aliquots of challenge inocula are mixed with 0.1 ml aliquots of antibiotic dilution in microtitre wells. Each microtitre plate contains uninoculated media at pH 6.8 (M. hyopneumoniae) (end point control) and antibiotic-free inoculated challenge controls. All plates are sealed with adhesive film and incubated aerobically at 36° C. MICs are recorded when the colour change in the challenge control wells match the pH of the end point control. The MIC is the lowest concentration showing no colour change.

Mycoplasma hyosynoviae = experiment: MIC assay, 7 field isolates of Mycoplasma hyosynoviae; assay type: cell-based; details: Mycoplasma; 7 field isolates
Method: Tissue samples are obtained from the lungs of pigs from various enzootic pneumonia of pigs (EPP)--affected herds. Samples are shipped on dry ice for culture. Four isolates from lung samples initially isolated for recovery of Mycoplasma hyopneumoniae were reisolated for Mycoplasma hyosynoviae after it had been noted from the lung samples submitted (re-stored at -70° C.), during culture for M. hyopneumoniae, that some samples yielded luxuriant growth of colonies having the typical morphology of Mycoplasma hyosynoviae. Three further isolates were recovered from other lung samples provided. All isolates were serologically identified by disc growth inhibition with specific rabbit antiserum raised against Mycoplasma hyosynoviae. A commerically available solid medium (Mycoplasma Experience Ltd.) is used to isolate M. hyosynoviae from lung tissue. A liquid medium (Mycoplasma Experience Ltd.) containing phenol red and arginine (pH 7.0) is used for the MIC assay.
as §1, with “and” for “&”, “7.6” for “6.8 (M. hyopneumoniae)”, “matches” for “match”

[3] = Mesomycoplasma hyopneumoniae, field strains (n = 10)

MIC (M. hyopneumoniae; Mesomycoplasma hyopneumoniae, NCTC10110, Type Strain J (NCTC 10110), read-out: MIC) [µg/mL] | MIC50 (M. hyopneumoniae; [3]) [µg/mL] | MIC90 (M. hyopneumoniae; [3]) [µg/mL] | MIC (M. hyopneumoniae; Mesomycoplasma hyopneumoniae, field strains (n = 10), read-out: MIC range) [µg/mL] | MIC (Mycoplasma hyosynoviae) [µg/mL] | SMILES | dosage showing activity against coccidia (coccidia) | dosage showing growth-promoting activity [1] | dosage showing growth-promoting activity [2] | susceptibility of field isolates (M. hyopneumoniae; field isolates)
 |  |  |  |  | C=C[C@]1(C)C[C@@H](OC(=O)CSC(C)(C)CNC(=O)[C@H](N)C(C)C)[C@]2(C)[C@H](C)CC[C@]3(CCC(=O)[C@H]32)[C@@H](C)[C@@H]1O [compound of formula I, 14-O-[1-[(R)-2-amino-3-methylbutyrylamino]-2-methylpropan-2-ylthioacetyl]mutilin] | 20-150 mg/kg of feed | 10-50 mg/kg of feed | 10-50 mg/kg of feed | 
0.025 (≈ 0.0696 µM) | 0.005 (≈ 0.0139 µM) | 0.01 (≈ 0.0278 µM) | 0.0025 to 0.025 (≈ 0.00696 to 0.0696 µM) | 0.025 to 0.25 (≈ 0.0696 to 0.696 µM) | CCN1CCN(c2cc3c(cc2F)c(=O)c(C(=O)O)cn3C2CC2)CC1 [enrofloxacin] |  |  |  | very good sensitivity
